In one data set the test system is K562. Kind of data set: Ratio of compound IC50 to adriamycin IC50 for Homo sapiens (human) K562 cells after 24 to 72 hr by MTT assay. The class given is functional. A general note: Tetrazolium assays rely on reduction of a dye to a coloured formazan, in cell work by metabolically active cells.
For data set [1], the target named is ATP-dependent translocase ABCB1 (Homo sapiens, UniProt P08183). Kind of data set: Inhibition of p-glycoprotein in Homo sapiens (human) K562/A02 cells assessed as reduction of adriamycin IC50 for cytotoxic effect at IC10 treated 12 hr before adriamycin challenge measured after 24 to 72 hr by MTT assay. The format is cell-based.
ATP-dependent translocase ABCB1, sequence (P08183 whole entry): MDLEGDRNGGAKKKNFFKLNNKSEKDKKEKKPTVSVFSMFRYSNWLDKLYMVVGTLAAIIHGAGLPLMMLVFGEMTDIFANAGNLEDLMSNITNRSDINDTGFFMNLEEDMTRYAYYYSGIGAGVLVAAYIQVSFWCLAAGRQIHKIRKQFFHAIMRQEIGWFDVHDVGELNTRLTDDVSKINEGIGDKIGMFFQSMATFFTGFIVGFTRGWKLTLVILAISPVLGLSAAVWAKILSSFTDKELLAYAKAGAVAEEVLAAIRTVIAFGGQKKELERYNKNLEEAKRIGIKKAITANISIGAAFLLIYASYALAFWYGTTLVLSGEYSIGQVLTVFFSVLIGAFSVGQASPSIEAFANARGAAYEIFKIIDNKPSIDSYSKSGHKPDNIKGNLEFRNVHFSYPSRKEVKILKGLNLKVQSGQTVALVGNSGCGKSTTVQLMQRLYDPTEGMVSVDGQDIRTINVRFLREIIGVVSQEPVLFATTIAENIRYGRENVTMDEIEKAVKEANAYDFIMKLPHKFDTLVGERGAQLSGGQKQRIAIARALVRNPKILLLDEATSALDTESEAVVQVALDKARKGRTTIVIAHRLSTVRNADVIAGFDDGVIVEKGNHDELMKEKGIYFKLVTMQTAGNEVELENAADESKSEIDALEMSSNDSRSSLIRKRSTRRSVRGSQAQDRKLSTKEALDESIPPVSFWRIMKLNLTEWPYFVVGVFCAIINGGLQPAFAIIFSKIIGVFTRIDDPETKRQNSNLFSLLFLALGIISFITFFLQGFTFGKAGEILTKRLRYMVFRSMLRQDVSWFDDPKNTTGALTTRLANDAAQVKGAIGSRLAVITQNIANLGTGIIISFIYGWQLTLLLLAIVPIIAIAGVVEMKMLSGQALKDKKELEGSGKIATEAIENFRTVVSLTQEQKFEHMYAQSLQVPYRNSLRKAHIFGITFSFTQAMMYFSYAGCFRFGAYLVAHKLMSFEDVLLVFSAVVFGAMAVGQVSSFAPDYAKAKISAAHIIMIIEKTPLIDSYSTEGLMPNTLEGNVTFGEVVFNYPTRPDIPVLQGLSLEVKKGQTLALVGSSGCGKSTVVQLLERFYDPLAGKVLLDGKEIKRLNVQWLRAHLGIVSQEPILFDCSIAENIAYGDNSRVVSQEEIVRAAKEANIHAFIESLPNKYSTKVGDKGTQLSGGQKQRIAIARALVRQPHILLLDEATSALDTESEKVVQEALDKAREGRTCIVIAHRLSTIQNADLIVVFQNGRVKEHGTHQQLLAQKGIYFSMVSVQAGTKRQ
Data set [2] is described as follows: Cytotoxicity against Homo sapiens (human) K562/A02 cells after 24 to 72 hr by MTT assay. The format is cell-based.

As a reminder, the IC10 is the concentration at which the effect reaches the 10% level. For the molecule `Cc1nc2ccccc2n(CC(=O)Nc2ccc(F)c(Cl)c2)c1=O`, the “Ratio IC50” value with K562 was found to be 1. For the same molecule, the “fold change (FC)” value in data set [1] worked out at 1.83. The same molecule gave an IC10 in data set [2] of 2.91 µM.

As for `COC(=O)[C@@H]1C[C@@H](O)CN1C(=O)Cn1c(=O)c(C)nc2ccccc21`, the “Ratio IC50” value with K562 was 1.15. The “fold change (FC)” value in data set [1] was determined as 4.82. In addition, the IC10 in data set [2] is 2.89 µM.

On to `Cc1nc2ccccc2n(CC(=O)Nc2ccc(Br)cc2)c1=O`, for which the “Ratio IC50” value in the data set with K562 is reported as 0.94. In addition, in data set [1], the “fold change (FC)” value stood at 1.24. The IC10 in data set [2] worked out at 2.7 µM.

Take `COc1cc2nc(C)c(=O)n(CC(=O)Nc3ccccc3)c2cc1OC`: the “Ratio IC50” value in the data set on K562 was 1.15. In data set [1], the “fold change (FC)” value is recorded as 4.59. Besides, the concentration for an effect of 10% (IC10) in data set [2] was 2.84 µM.

With `Cc1nc2cc(F)c(F)cc2n(CC(=O)Nc2ccccc2)c1=O`, in the data set on K562, the “Ratio IC50” value came out at 1. Further, the “fold change (FC)” value in data set [1] stood at 2.41. Moreover, in data set [2], the IC10 stood at 1.52 µM.

Regarding `Cc1ccccc1NC(=O)Cn1c(=O)c(C)nc2ccccc21`, the “Ratio IC50” value in the data set on K562 was 1.15. Also, the “fold change (FC)” value in data set [1] was found to be 4.01. In addition, the IC10 in data set [2] turned out to be 1.85 µM.

Turning to `Cc1nc2ccccc2n(CC(=O)Nc2ccccc2)c1=O`, in the data set with K562, the “Ratio IC50” value is 1.07. In addition, in data set [1], the “fold change (FC)” value is recorded as 2.45. Besides, in data set [2], the 10% effect concentration (IC10) was found to be 34.1 µM.

In the case of `COC(=O)[C@H](Cc1ccccc1)NC(=O)Cn1c(=O)c(C)nc2cc(OC)c(OC)cc21`, the “Ratio IC50” value in the data set on K562 amounted to 1. Also, in data set [1], the “fold change (FC)” value worked out at 1.82. The IC10 in data set [2] is 11.38 µM.

On to `COC(=O)[C@H](Cc1ccccc1)NC(=O)Cn1c(=O)c(C)nc2cc(F)c(F)cc21`, for which the “Ratio IC50” value with K562 was determined as 1.15. The “fold change (FC)” value in data set [1] worked out at 1.05. In data set [2], this molecule had a concentration for an effect of 10% (IC10) of 2.41 µM.

With `Cc1nc2ccccc2n(CC(=O)Nc2ccc(F)c(F)c2)c1=O`, the “Ratio IC50” value in the data set with K562 is recorded as 1.07. For the same molecule, the “fold change (FC)” value in data set [1] is 5.3. The IC10 in data set [2] is 2.57 µM.

Turning to `CCOC(=O)CNC(=O)Cn1c(=O)c(C)nc2ccccc21`, the “Ratio IC50” value in the data set on K562 is recorded as 1.07. Besides, the “fold change (FC)” value in data set [1] is 2.37. Also, in data set [2], the IC10 was determined as 16.5 µM.

On to `COc1ccc(NC(=O)Cn2c(=O)c(C)nc3ccccc32)cc1OC`, for which the “Ratio IC50” value in the data set with K562 came to 1.15. In data set [1], the “fold change (FC)” value was 3.75. In data set [2], this molecule displayed an IC10 of 1.42 µM.

On to `CCOC(=O)Cn1c(=O)c(C)nc2ccccc21`, for which, in the data set with K562, the “Ratio IC50” value was 1. Besides, the “fold change (FC)” value in data set [1] is given as 1.5. Besides, the concentration for an effect of 10% (IC10) in data set [2] was found to be 4.06 µM.

Take `COC(=O)[C@H](Cc1ccccc1)NC(=O)Cn1c(=O)c(C)nc2ccccc21`: the “Ratio IC50” value in the data set on K562 is 1.25. The “fold change (FC)” value in data set [1] worked out at 2.01. The 10% effect concentration (IC10) in data set [2] stood at 13.19 µM.

On to `Cc1ccc(NC(=O)Cn2c(=O)c(C)nc3ccccc32)cc1`, for which the “Ratio IC50” value in the data set with K562 was 1. Further, the “fold change (FC)” value in data set [1] is listed as 3.55. In addition, the IC10 in data set [2] worked out at 1.63 µM.

As to `CCOC(=O)CC[C@H](NC(=O)Cn1c(=O)c(C)nc2ccccc21)C(=O)OCC`, the “Ratio IC50” value in the data set with K562 stood at 1.15. For the same molecule, in data set [1], the “fold change (FC)” value stood at 4.13. The concentration for an effect of 10% (IC10) in data set [2] is 2.48 µM.

With `Cc1nc2ccccc2n(CC(=O)Nc2ccc(Cl)c(Cl)c2)c1=O`, the “Ratio IC50” value in the data set on K562 turned out to be 1.07. The “fold change (FC)” value in data set [1] is listed as 1.62. This molecule gave an IC10 in data set [2] of 0.14 µM.

Source of the values: ChEMBL document CHEMBL3045558, “Synthesis and primary evaluation of quinoxalinone derivatives as potent modulators of multidrug resistance” (Med Chem Res, 2009).
